Laboratory results published in publication PMC10298982, “Stability Characterization of the Novel Anti-Cancer HM-10/10 HDL-Mimetic Peptide” (International Journal of Molecular Sciences, 2023).

How the values were obtained:
[1] = Stability in simulated gastric fluid (SGF); format: in vitro ADME; conditions: SGF pH 1.3
Description: (§1) When developing any potentially oral-route pharmaceutical agent, the denaturing and pepsin-rich environment of the stomach must be considered. The stability of HM-10/10 was tested in simulated gastric fluid (SGF) and simulated intestinal fluid (SIF) over 120 min. […] Samples were tested at 2 μM.
(§2) For the HM-10/10 stability assay in simulated gastric and intestinal fluids, propantheline was used to confirm retention time and carbutamide was used as the internal standard for calculations.

[2] = Stability in simulated intestinal fluid (SIF); format: in vitro ADME; conditions: simulated intestinal fluid (SIF), SIF pH 5.5
Description: as §1, §2

in vitro [3] = conditions: human, plasma, pH 7.4
in vitro [4] = conditions: Sprague-Dawley, rat, plasma, pH 7.4
in vitro [5] = conditions: beagle, dog, plasma, pH 7.4
in vitro [6] = conditions: cynomolgus monkey, plasma, pH 7.4
in vitro [7] = conditions: CD-1, mouse, plasma, pH 7.4
CYP2C9 = CYP2C9 (Homo sapiens, UniProt P11712)
Chain of CYP2C9 (P11712 whole entry): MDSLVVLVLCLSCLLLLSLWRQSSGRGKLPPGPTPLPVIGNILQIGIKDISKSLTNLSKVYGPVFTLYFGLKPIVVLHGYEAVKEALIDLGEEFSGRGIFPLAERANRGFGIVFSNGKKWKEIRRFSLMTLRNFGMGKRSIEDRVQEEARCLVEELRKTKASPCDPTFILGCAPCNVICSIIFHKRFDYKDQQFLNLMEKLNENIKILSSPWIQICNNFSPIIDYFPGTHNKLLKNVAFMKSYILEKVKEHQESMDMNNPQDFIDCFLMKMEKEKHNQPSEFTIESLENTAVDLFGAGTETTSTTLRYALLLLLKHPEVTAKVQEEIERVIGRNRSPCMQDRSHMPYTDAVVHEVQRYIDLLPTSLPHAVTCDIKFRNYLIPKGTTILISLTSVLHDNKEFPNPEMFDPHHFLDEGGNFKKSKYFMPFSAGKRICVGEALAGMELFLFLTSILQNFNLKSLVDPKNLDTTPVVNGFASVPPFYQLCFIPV

CYP2C8 = target: T1, CYP2C8 (Homo sapiens, UniProt P10632); experiment: CYP450 time-dependent inhibition, CYP2C8, pooled human liver microsomes; conditions: Amodiaquine (2C8)
T1 sequence (P10632 1-490): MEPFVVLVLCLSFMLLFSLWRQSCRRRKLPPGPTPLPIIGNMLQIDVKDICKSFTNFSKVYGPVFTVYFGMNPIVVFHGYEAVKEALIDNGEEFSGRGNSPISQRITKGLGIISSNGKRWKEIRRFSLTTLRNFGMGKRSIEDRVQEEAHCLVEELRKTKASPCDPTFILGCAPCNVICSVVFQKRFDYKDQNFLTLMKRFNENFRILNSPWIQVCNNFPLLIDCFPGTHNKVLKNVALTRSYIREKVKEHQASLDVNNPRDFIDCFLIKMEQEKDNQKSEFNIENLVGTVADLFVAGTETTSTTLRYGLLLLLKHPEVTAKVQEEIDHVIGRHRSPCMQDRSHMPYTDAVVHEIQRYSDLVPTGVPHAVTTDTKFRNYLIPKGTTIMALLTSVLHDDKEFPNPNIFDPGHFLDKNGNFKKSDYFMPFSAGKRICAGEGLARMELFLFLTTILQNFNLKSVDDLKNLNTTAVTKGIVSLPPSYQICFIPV

[8] = both, human, microsomes, pH 7.4

half-life at 2 µM (in vitro [3]) | remaining at 2 h, 2 µM (in vitro [3]) | half-life at 2 µM (in vitro [4]) | half-life at 2 µM (in vitro [5]) | remaining at 2 h, 2 µM (in vitro [5]) | half-life at 2 µM (in vitro [6]) | remaining at 2 h, 2 µM (in vitro [6]) | half-life at 2 µM (in vitro [7]) | Structure (SMILES) | further results
0.76 h | 13.3% | 77.5 h | 4.1 h | 65.7% | 11.1 h | 80.3% | 1.17 h | CC(C)[N+](C)(CCOC(=O)C1c2ccccc2Oc2ccccc21)C(C)C [Propantheline, propantheline] | half-life at 2 µM [1]: 8.7 h; half-life at 2 µM [2]: 13.6 h; remaining at 2 h, 2 µM (in vitro [4]): 95%; remaining at 2 h, 2 µM (in vitro [7]): 27%
– | – | – | – | – | – | – | – | Nc1ccc(S(=O)(=O)Nc2ccnn2-c2ccccc2)cc1 [Sulfaphenazole, sulfaphenazole] | Comments (time-dependent inhibition) (CYP2C9): No TDI; % Inhibition at 50 µM No PI + NADPH (CYP2C9; [8]): 99.2%; % Inhibition at 50 µM No PI − NADPH (CYP2C9; [8]): 99.1%; % Inhibition at 50 µM PI + NADPH (CYP2C9; [8]): 99.7%; % Inhibition at 50 µM PI − NADPH (CYP2C9; [8]): 99.9%
– | – | – | – | – | – | – | – | O=c1c(O)c(-c2ccc(O)c(O)c2)oc2cc(O)cc(O)c12 [Quercetin, quercetin] | Comments (time-dependent inhibition) (CYP2C8): No TDI; % Inhibition at 50 µM No PI + NADPH (CYP2C8; 50 µM, No PI + NADPH): 100.5%; % Inhibition at 50 µM No PI − NADPH (CYP2C8; 50 µM, No PI − NADPH): 100.9%; % Inhibition at 50 µM PI + NADPH (CYP2C8; 50 µM, PI + NADPH): 100.8%; % Inhibition at 50 µM PI − NADPH (CYP2C8; 50 µM, PI − NADPH): 100.5%
10.8 h | 81.1% | 0.138 h | 7.42 h | 73.2% | > 2 h | 115% | 0.24 h | CC[C@H](C)C(=O)O[C@H]1C[C@@H](C)C=C2C=C[C@H](C)[C@H](CC[C@@H]3C[C@@H](O)CC(=O)O3)[C@H]21 [Lovastatin, lovastatin] | –
